According to PMC8876412 (Viruses, 2022):
Entries after “also recorded” stand apart in the source; their conditions may differ.

Columns and labels:
[1] = tested on: pp28-luciferase recombinant Towne CMV; test: microbe, parasite or virus in culture; settings: Human betaherpesvirus 5, read-out: EC50 pp28-Luciferase
[2] = tested on: Western Equine Encephalitis Virus (WEEV); settings: cultured human neuronal cells; cited from earlier work
[3] = tested on: CMV TB40; test: microbe, parasite or virus in culture; assay type: cell-based, human cytomegalovirus; settings: Human betaherpesvirus 5, 168 h, read-out: EC50 TB40
[4] = tested on: CMV TB40 (US17 DNA); test: Viral DNA in cells and supernatants by US17 real-time PCR; assay type: cell-based, human cytomegalovirus; settings: for cellular viral loads (viral DNA replication in cells): 72, 96, 120 h
[5] = tested on: CMV TB40; design: method as in ref 24 = [24]; settings: cited from earlier work
[6] = tested on: MCMV Smith strain; design: method as in ref 24 = [24]; settings: cited from earlier work
[7] = tested on: HSV2; design: method as in ref 24 = [24]; settings: cited from earlier work
[8] = tested on: HSV1; design: method as in ref 24 = [24]; settings: cited from earlier work
[9] = MTT toxicity assay in non-infected cells; assay type: cell-based; settings: human, non-infected HFF cells, non-infected HFFs
[10] = tested on: CMV; design: method as in ref 23 = [23]; settings: cited from earlier work
[11] = tested on: HSV2; test: HSV2 plaque assay in Vero cells; assay type: cell-based, Human Herpesvirus 2; settings: 5 µM, positive control
[12] = tested on: HSV1; test: HSV1 plaque assay in Vero cells; assay type: cell-based, Human Herpesvirus 1; settings: 5 µM, positive control
[13] = tested on: CMV TB40; test: Virus yield: supernatants of TB40-infected HFFs titered by plaque assay; assay type: cell-based, human cytomegalovirus; settings: supernatants at 72, 96, 120 h; for reduction in viral titer (virus yield) of supernatants: 3 µM
[14] = tested on: MCMV Smith strain; test: microbe, parasite or virus in culture; assay type: cell-based; settings: Mouse cytomegalovirus, Fibroblast, read-out: EC50 MCMV
[15] = tested on: pp28-luciferase recombinant Towne CMV; settings: CC50 in non-infected HFFs versus anti-CMV EC50

## CCOC(=O)C1CCN(C(=O)c2cccn2Cc2ccc(Cl)cc2)CC1 [Compound 14]
[1]
  EC50: > 30000 nM

## CC(C)NC(=O)C1CCN(C(=O)c2cc3ccccc3n2Cc2ccc(Cl)cc2)CC1 [Compound 3]
[1]
  EC50: > 30000 nM

## O=C(NCc1cccnc1)C1CCN(C(=O)c2cccn2Cc2ccc(Cl)cc2)CC1 [Compound 11]
[1]
  EC50: > 30000 nM

## CC(C)NC(=O)C1CCN(C(=O)c2cccn2Cc2ccc(Cl)cc2)CC1 [Compound 4]
[1]
  EC50: > 30000 nM

## O=C(NCCc1ccncc1)C1CCN(C(=O)c2cc3ccccc3n2Cc2ccc(Cl)cc2)CC1 [CCG205432]
[2]
  inhibition of infectious virus: inhibited the infectious virus

## CC(C)NC(=O)C1CCN(C(=O)c2cc3sccc3n2Cc2ccc(Cl)cc2)CC1 [Compound 1]
[3]
  EC50: 1990 ± 150 nM
[1]
  EC50: 1700 ± 600 nM
[4]; 3 µM
  cellular viral loads (viral DNA replication in cells): did not reduce
[5]
  in vitro activity against TB40: low µM concentrations
[6]
  in vitro activity against mouse CMV: low µM concentrations
[7]
  activity against HSV2: no activity
[8]
  activity against HSV1: no activity
[9]
  CC50 at 72 h: > 200000 nM

## O=C(O)C1CCN(C(=O)c2cccn2Cc2ccc(Cl)cc2)CC1 [Compound 13]
[1]
  EC50: > 30000 nM

## CC(C)NC(=O)C1CCCN(C(=O)c2cc3sccc3n2Cc2ccc(Cl)cc2)C1 (centres unmarked) [Compound 2]
[1]
  EC50: > 30000 nM

## O=C(NCc1ccccn1)C1CCN(C(=O)c2cccn2Cc2ccc(Cl)cc2)CC1 [Compound 10]
[1]
  EC50: > 30000 nM

## CC(C)Nc1nc2cc(Cl)c(Cl)cc2n1[C@H]1O[C@@H](CO)[C@H](O)[C@@H]1O [maribavir, Maribavir]
[10]; across all doses
  response: ~ 65%
[10]; of the participants
  CMV recurrences: 35%

## Nc1nc(O)c2ncn(COC(CO)CO)c2n1 [GCV, ganciclovir, reference compound]
[4]; 5 µM
  viral DNA in supernatants: reduced DNA replication
  viral DNA replication in cells: reduced DNA replication
[11]
  inhibition of HSV2: complete inhibition
[12]
  inhibition of HSV1: complete inhibition

## O=C(NCCc1ccncc1)C1CCN(C(=O)c2cc3ccccc3n2Cc2ccc(Cl)cc2)CC1 [Compound 8]
[3]
  EC50: 420 ± 70 nM
[13]
  reduction in viral titer (virus yield) of supernatants: higher than with 1 and overall similar to GCV
[1]
  EC50: 280 ± 60 nM
[4]; 3 µM, 72, 96, 120 hpi
  viral loads in supernatants: decreased viral loads at 120 hpi
[4]; 3 µM
  cellular viral loads (viral DNA replication in cells): did not reduce
[14]
  EC50: 730 ± 320 nM
[15]
  selectivity index: > 1500
[9]
  CC50 at 72 h: > 500000 nM

## O=C(NCCc1ccncc1)C1CCN(C(=O)c2cccn2Cc2ccc(Cl)cc2)CC1 [Compound 7]
[3]
  EC50: 550 ± 60 nM
[13]
  reduction in viral titer (virus yield) of supernatants: reduced virus yield at all late time points; also recorded: higher than with 1 and overall similar to GCV
[1]
  EC50: 210 ± 60 nM
[4]; 3 µM, 72, 96, 120 hpi
  viral loads in supernatants: decreased the viral loads in supernatants at all time points
[4]; 3 µM
  cellular viral loads (viral DNA replication in cells): did not reduce
[14]
  EC50: 600 ± 340 nM
[15]
  selectivity index: > 1500
[9]
  CC50 at 72 h: > 500000 nM

## O=C(NCc1ccncc1)C1CCN(C(=O)c2cccn2Cc2ccc(Cl)cc2)CC1 [Compound 12]
[1]
  EC50: > 30000 nM

## O=C(NCCc1cccnc1)C1CCN(C(=O)c2cccn2Cc2ccc(Cl)cc2)CC1 [Compound 6]
[1]
  EC50: > 30000 nM

## O=C(NCCc1ccncc1)C1CCN(C(=O)c2cc3sccc3n2Cc2ccc(Cl)cc2)CC1 [Compound 9]
[3]
  EC50: 350 ± 70 nM
[1]
  EC50: 300 ± 50 nM
[15]
  selectivity index: > 1500
[9]
  CC50 at 72 h: > 500000 nM

## O=C(NCCc1ccccn1)C1CCN(C(=O)c2cccn2Cc2ccc(Cl)cc2)CC1 [Compound 5]
[1]
  EC50: > 30000 nM

## COc1cccc(N2CCN(C3=Nc4c(F)cccc4[C@H](CC(=O)O)N3c3cc(C(F)(F)F)ccc3OC)CC2)c1 [Letermovir, reference compound]
[13]; 10 nM
  reduction in viral progeny of supernatants: strongest reduction in viral progeny at all time points
[4]; 10 nM
  viral loads in supernatants: reduced viral loads in supernatants
